Laboratory results published in PubChem BioAssay (NCI).
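Test compounds were applied to cells in 96-well plates for 48 hours at 5 doses. At the GI50, growth is halved. The concentration for full growth arrest is given as TGI.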

How the values were obtained:
Test in all cases: NCI tumour cell line growth inhibition, 48 h
A549 NSCLC = system: A549 NSCLC
ACHN renal = system: ACHN renal
CAKI-1 renal = system: CAKI-1 renal
DU-145 prostate = system: DU-145 prostate
EKVX NSCLC = system: EKVX NSCLC
HCT-116 colon = system: HCT-116 colon
HCT-15 colon = system: HCT-15 colon
HOP-92 NSCLC = system: HOP-92 NSCLC
HT29 colon = system: HT29 colon
IGROV1 ovarian = system: IGROV1 ovarian
KM12 colon = system: KM12 colon
M14 melanoma = system: M14 melanoma
MDA-MB-231 breast = system: MDA-MB-231 breast
MDA-MB-435 = system: MDA-MB-435
MDA-N = system: MDA-N
NCI-H226 lung = system: NCI-H226 lung
NCI-H23 lung = system: NCI-H23 lung
NCI/ADR-RES ovarian = system: NCI/ADR-RES ovarian
OVCAR-3 ovarian = system: OVCAR-3 ovarian
OVCAR-4 ovarian = system: OVCAR-4 ovarian
OVCAR-5 ovarian = system: OVCAR-5 ovarian
OVCAR-8 ovarian = system: OVCAR-8 ovarian
PC-3 prostate = system: PC-3 prostate
RXF 393 renal = system: RXF 393 renal
SF-268 CNS = system: SF-268 CNS
SF-295 CNS = system: SF-295 CNS
SF-539 CNS = system: SF-539 CNS
SK-MEL-5 melanoma = system: SK-MEL-5 melanoma
SN12C renal = system: SN12C renal
SNB-19 CNS = system: SNB-19 CNS
SNB-75 CNS = system: SNB-75 CNS
SW-620 colon = system: SW-620 colon
TK-10 renal = system: TK-10 renal
U251 CNS = system: U251 CNS
UO-31 renal = system: UO-31 renal
786-0 renal = system: 786-0 renal
A498 renal = system: A498 renal
BT-549 breast = system: BT-549 breast
CCRF-CEM leukemia = system: CCRF-CEM leukemia
COLO 205 colon = system: COLO 205 colon
HL-60(TB) leukemia = system: HL-60(TB) leukemia
HOP-62 NSCLC = system: HOP-62 NSCLC
HS 578T breast = system: HS 578T breast
K-562 leukemia = system: K-562 leukemia
LOX IMVI melanoma = system: LOX IMVI melanoma
MALME-3M melanoma = system: MALME-3M melanoma
MCF7 breast = system: MCF7 breast
MOLT-4 leukemia = system: MOLT-4 leukemia
NCI-H460 lung = system: NCI-H460 lung
NCI-H522 lung = system: NCI-H522 lung
RPMI-8226 leukemia = system: RPMI-8226 leukemia
SK-MEL-2 melanoma = system: SK-MEL-2 melanoma
SK-MEL-28 melanoma = system: SK-MEL-28 melanoma
SK-OV-3 ovarian = system: SK-OV-3 ovarian
SR leukemia = system: SR leukemia
T-47D breast = system: T-47D breast
UACC-257 melanoma = system: UACC-257 melanoma
UACC-62 melanoma = system: UACC-62 melanoma

## CC1(C)CC(=O)C2=C(C1)OC1=C(C(=O)CC(C)(C)C1)C2CC(c1ccccc1)c1ccc(O)c(O)c1O (centres undefined)
A549 NSCLC
  TGI: > 10 µM
ACHN renal
  TGI: > 10 µM
CAKI-1 renal
  TGI: > 10 µM
DU-145 prostate
  TGI: > 10 µM
EKVX NSCLC
  TGI: > 10 µM
HCT-116 colon
  TGI: > 10 µM
HCT-15 colon
  TGI: > 10 µM
HOP-92 NSCLC
  TGI: > 10 µM
HT29 colon
  TGI: > 10 µM
IGROV1 ovarian
  TGI: > 10 µM
KM12 colon
  TGI: > 10 µM
M14 melanoma
  TGI: > 10 µM
MDA-MB-231 breast
  TGI: > 10 µM
MDA-MB-435
  TGI: > 10 µM
MDA-N
  TGI: > 10 µM
NCI-H226 lung
  TGI: > 10 µM
NCI-H23 lung
  TGI: > 10 µM
NCI/ADR-RES ovarian
  TGI: > 10 µM
OVCAR-3 ovarian
  TGI: > 10 µM
OVCAR-4 ovarian
  TGI: > 10 µM
OVCAR-5 ovarian
  TGI: > 10 µM
OVCAR-8 ovarian
  TGI: > 10 µM
PC-3 prostate
  TGI: > 10 µM
RXF 393 renal
  TGI: > 10 µM
SF-268 CNS
  TGI: > 10 µM
SF-295 CNS
  TGI: > 10 µM
SF-539 CNS
  TGI: > 10 µM
SK-MEL-5 melanoma
  TGI: > 10 µM
SN12C renal
  TGI: > 10 µM
SNB-19 CNS
  TGI: > 10 µM
SNB-75 CNS
  TGI: > 10 µM
SW-620 colon
  TGI: > 10 µM
TK-10 renal
  TGI: > 10 µM
U251 CNS
  TGI: > 10 µM
UO-31 renal
  TGI: > 10 µM

## O=C1OCC(c2cccs2)=C1Cl
786-0 renal
  GI50: > 100 µM
  TGI: > 100 µM
A498 renal
  GI50: 17.6 µM
  TGI: 63.9 µM
A549 NSCLC
  GI50: 41.1 µM
  TGI: > 100 µM
ACHN renal
  GI50: 56.7 µM
  TGI: > 100 µM
BT-549 breast
  GI50: 33.4 µM
  TGI: > 100 µM
CAKI-1 renal
  GI50: > 100 µM
  TGI: > 100 µM
CCRF-CEM leukemia
  GI50: 84.1 µM
  TGI: > 100 µM
COLO 205 colon
  GI50: 32.2 µM
  TGI: > 100 µM
DU-145 prostate
  GI50: 26.7 µM
  TGI: > 100 µM
EKVX NSCLC
  GI50: 40.5 µM
  TGI: > 100 µM
HCT-116 colon
  GI50: > 100 µM
  TGI: > 100 µM
HCT-15 colon
  GI50: 74.2 µM
  TGI: > 100 µM
HL-60(TB) leukemia
  GI50: > 100 µM
  TGI: > 100 µM
HOP-62 NSCLC
  GI50: > 100 µM
  TGI: > 100 µM
HOP-92 NSCLC
  GI50: 54.5 µM
  TGI: > 100 µM
HS 578T breast
  GI50: 39 µM
  TGI: > 100 µM
HT29 colon
  GI50: 62.4 µM
  TGI: > 100 µM
IGROV1 ovarian
  GI50: > 100 µM
  TGI: > 100 µM
K-562 leukemia
  GI50: > 100 µM
  TGI: > 100 µM
KM12 colon
  GI50: 76.3 µM
  TGI: > 100 µM
LOX IMVI melanoma
  GI50: 89.5 µM
  TGI: > 100 µM
M14 melanoma
  GI50: > 100 µM
  TGI: > 100 µM
MALME-3M melanoma
  GI50: > 100 µM
  TGI: > 100 µM
MCF7 breast
  GI50: 39.3 µM
  TGI: > 100 µM
MDA-MB-231 breast
  GI50: 24.7 µM
  TGI: 98.2 µM
MDA-MB-435
  GI50: > 100 µM
  TGI: > 100 µM
MOLT-4 leukemia
  GI50: > 100 µM
  TGI: > 100 µM
NCI-H226 lung
  GI50: 28.2 µM
  TGI: 95.5 µM
NCI-H23 lung
  GI50: 60.6 µM
  TGI: > 100 µM
NCI-H460 lung
  GI50: 56.8 µM
  TGI: > 100 µM
NCI-H522 lung
  GI50: 42.4 µM
  TGI: > 100 µM
NCI/ADR-RES ovarian
  GI50: 48.1 µM
  TGI: > 100 µM
OVCAR-3 ovarian
  GI50: 44.8 µM
  TGI: > 100 µM
OVCAR-4 ovarian
  GI50: 73.8 µM
  TGI: > 100 µM
OVCAR-5 ovarian
  GI50: 76.7 µM
  TGI: > 100 µM
OVCAR-8 ovarian
  GI50: 90.1 µM
  TGI: > 100 µM
PC-3 prostate
  GI50: > 100 µM
  TGI: > 100 µM
RPMI-8226 leukemia
  GI50: 32.2 µM
  TGI: > 100 µM
RXF 393 renal
  GI50: 53 µM
  TGI: > 100 µM
SF-268 CNS
  GI50: > 100 µM
  TGI: > 100 µM
SF-295 CNS
  GI50: 80.9 µM
  TGI: > 100 µM
SF-539 CNS
  GI50: 23.2 µM
  TGI: 86 µM
SK-MEL-2 melanoma
  GI50: > 100 µM
  TGI: > 100 µM
SK-MEL-28 melanoma
  GI50: 76.8 µM
  TGI: > 100 µM
SK-MEL-5 melanoma
  GI50: 86.3 µM
  TGI: > 100 µM
SK-OV-3 ovarian
  GI50: > 100 µM
  TGI: > 100 µM
SN12C renal
  GI50: 26.7 µM
  TGI: > 100 µM
SNB-19 CNS
  GI50: > 100 µM
  TGI: > 100 µM
SNB-75 CNS
  GI50: 75.9 µM
  TGI: > 100 µM
SR leukemia
  GI50: > 100 µM
  TGI: > 100 µM
SW-620 colon
  GI50: > 100 µM
  TGI: > 100 µM
T-47D breast
  GI50: 7.47 µM
  TGI: > 100 µM
TK-10 renal
  GI50: 54.2 µM
  TGI: > 100 µM
U251 CNS
  GI50: 52.9 µM
  TGI: > 100 µM
UACC-257 melanoma
  GI50: 41 µM
  TGI: > 100 µM
UACC-62 melanoma
  GI50: 19.5 µM
  TGI: > 100 µM
UO-31 renal
  GI50: 89 µM
  TGI: > 100 µM

## COc1ccc(N2C(=O)C3ON(C(C(N)=O)c4ccccc4)C(c4ccc(-c5ccccc5)cc4)C3C2=O)cc1 (centres undefined)
786-0 renal
  TGI: > 50 µM
A498 renal
  TGI: > 50 µM
A549 NSCLC
  TGI: > 50 µM
ACHN renal
  TGI: > 50 µM
BT-549 breast
  TGI: > 50 µM
CAKI-1 renal
  TGI: > 50 µM
CCRF-CEM leukemia
  TGI: > 50 µM
COLO 205 colon
  TGI: > 50 µM
DU-145 prostate
  TGI: > 50 µM
EKVX NSCLC
  TGI: > 50 µM
HCT-116 colon
  TGI: > 50 µM
HCT-15 colon
  TGI: > 50 µM
HL-60(TB) leukemia
  TGI: > 50 µM
HOP-62 NSCLC
  TGI: > 50 µM
HS 578T breast
  TGI: > 50 µM
HT29 colon
  TGI: > 50 µM
IGROV1 ovarian
  TGI: > 50 µM
K-562 leukemia
  TGI: > 50 µM
KM12 colon
  TGI: > 50 µM
LOX IMVI melanoma
  TGI: > 50 µM
M14 melanoma
  TGI: > 50 µM
MALME-3M melanoma
  TGI: > 50 µM
MCF7 breast
  TGI: > 50 µM
MDA-MB-231 breast
  TGI: > 50 µM
MDA-MB-435
  TGI: > 50 µM
MOLT-4 leukemia
  TGI: > 50 µM
NCI-H226 lung
  TGI: > 50 µM
NCI-H23 lung
  TGI: > 50 µM
NCI-H460 lung
  TGI: > 50 µM
NCI-H522 lung
  TGI: > 50 µM
NCI/ADR-RES ovarian
  TGI: > 50 µM
OVCAR-3 ovarian
  TGI: > 50 µM
OVCAR-4 ovarian
  TGI: > 50 µM
OVCAR-5 ovarian
  TGI: > 50 µM
OVCAR-8 ovarian
  TGI: > 50 µM
PC-3 prostate
  TGI: > 50 µM
RPMI-8226 leukemia
  TGI: > 50 µM
RXF 393 renal
  TGI: > 50 µM
SF-268 CNS
  TGI: > 50 µM
SF-295 CNS
  TGI: > 50 µM
SF-539 CNS
  TGI: > 50 µM
SK-MEL-2 melanoma
  TGI: > 50 µM
SK-MEL-28 melanoma
  TGI: > 50 µM
SK-OV-3 ovarian
  TGI: > 50 µM
SN12C renal
  TGI: > 50 µM
SNB-19 CNS
  TGI: > 50 µM
SNB-75 CNS
  TGI: > 50 µM
SR leukemia
  TGI: > 50 µM
SW-620 colon
  TGI: > 50 µM
T-47D breast
  TGI: > 50 µM
TK-10 renal
  TGI: > 50 µM
U251 CNS
  TGI: > 50 µM
UACC-257 melanoma
  TGI: > 50 µM
UACC-62 melanoma
  TGI: > 50 µM
UO-31 renal
  TGI: > 50 µM
